The values below come from patent US8748460B2, “Iminosugars and methods of treating togaviral diseases” (priority 2009, dated 2014).

Series [1] relates to Venezuelan Equine Encephalitis (Togaviridae) TC-83 strain. The format is cell-based, Venezuelan equine encephalitis virus. The settings on record: read-out: EC50, VEE virus inhibition.
Series [2] has as its system Chikungunya (Togaviridae) 181/25 strain. The class given is cell-based. The following applies: read-out: EC50, Chikungunya virus inhibition.
In series [3] the test system is Rift Valley Fever Virus (Bunyavirus) MP12 strain. The format is cell-based. The settings on record: read-out: EC50, RVFV MP12 virus inhibition.

Broadly, the EC50 is the midpoint of the concentration-response curve. On to `CCCCN1C[C@H](O)[C@@H](O)[C@H](O)[C@H]1CO` [UV-1, N-Butyl deoxynojirimycin], for which, in series [1], the EC50 was found to be 156 µM.
For `CCCCCCCCCN1C[C@H](O)[C@@H](O)[C@H](O)[C@H]1CO` [UV-2, N-Nonyl dexoynojirimycin], the “toxicity at the highest concentration” value in the series on Vero cells was “toxic”. Besides, the “toxicity to cells at the highest concentration” value in the series with Vero cells is given as “toxic”. The 50% effective concentration (EC50) was determined as 12 µM in series [1], 56 µM in series [2] and 58 µM in series [3].
Turning to `CCCOCCCCCCN1C[C@H](O)[C@@H](O)[C@H](O)[C@H]1CO` [UV-3, N-(7-Oxadecyl)deoxynojirimycin], the EC50 in series [3] was found to be 218 µM.
Turning to `[N-]=[N+]=Nc1ccc(NCCCCCCN2C[C@H](O)[C@@H](O)[C@H](O)[C@H]2CO)c([N+](=O)[O-])c1` [UV-5, N—(N-{4′-azido-2′-nitrophenyl}-6-aminohexyl)deoxynojirimycin], the EC50 in series [1] is 2 µM; in series [2], 22 µM; in series [3] it was 49 µM.
